One data set can be described thus: Tolerance and toxicity (general statement). Conditions: racemic mixture or separated optically active forms, whatever the route of administration.
Take `CC(=O)OC(CC(=O)[O-])C[N+](C)(C)C` (stereo not drawn) [acetyl-carnitine]: the tolerance result is on record as “excellent”.

A short description of a further data set: in vivo. The settings on record: mouse, iv. An excerpt: As is known, carnitine contains an asymetrical carbon atom and consequently exists in two stereoisomer forms.
As usually defined, the LD50 is the dose at which mortality reaches 50%. In the case of `CC(=O)OC(CC(=O)[O-])C[N+](C)(C)C` (stereo not drawn) [acetyl-carnitine], the 50% lethal dose (LD50) came to 770 mg/kg.
On to `CC(O)CC(=O)OC(CC(=O)[O-])C[N+](C)(C)C` (stereo not drawn) [hydroxybutyryl-carnitine], for which the 50% lethal dose (LD50) was determined as 745 mg/kg. This LD50 and that of the compound before are within 1.5-fold of each other.
As to `C[N+](C)(C)CC(CC(=O)[O-])OC(=O)CCC(=O)O` (stereo not drawn) [succinyl-carnitine], the LD50 was 780 mg/kg.
In turn, `CC(C)CC(=O)OC(CC(=O)[O-])C[N+](C)(C)C` (stereo not drawn) [isovaleryl-carnitine] showed an LD50 of 743 mg/kg. The LD50 values of the last two compounds are within 1.5-fold of each other.
For the compound `CC(=O)CC(=O)OC(CC(=O)[O-])C[N+](C)(C)C` (stereo not drawn) [acetoacetyl-carnitine], the LD50 worked out at 728 mg/kg.

Values taken from patent US4343816A, “Pharmaceutical composition comprising an acyl-carnitine, for treating peripheral vascular diseases” (priority 1979, dated 1982).
